Test results taken from US9023789B2, “Amylin analogs and pharmaceutical compositions thereof” (Novo Nordisk A/S, priority 2012, dated 2015).
Numbered stars: 1 amine (or outer) side, 2 acyl side, 3 side chain; on linkers, the order of the positions; unused ones are H or OH. Bridge positions count the residues as written; N and C are the ends. Side chains are listed from the residue outwards. Peptide text beside a SMILES is read from it. * marks the point of attachment. C20 diacid = O=C(O)CCCCCCCCCCCCCCCCCCC(=O)*; γGlu = O=C(O)[C@H](CCC(=O)[*:2])N[*:1]; AEEA = NCCOCCOCC(=O)O

Columns and labels:
Sprague Dawley (SD) rats = test: ASSAY (I) efficacy testing on appetite (food intake) using an ad libitum fed rat model; format: in vivo; conditions: rat
How it was run: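 Ad libitum fed SD rats (200–250 g) were housed singly on a reversed light/dark cycle and given one 0.01–3 mg/kg dose ip, po or sc just before lights-off, with 5–8 per dose group plus vehicle controls. Food intake was recorded hourly for 7 h, then at 24 h and sometimes 48 h; Grubbs outliers were excluded.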

[1] = biological target: T1, rat amylin receptor (rat calcitonin receptor + rat RAMP 3) (Rattus norvegicus, UniProt P32214+Q9JJ73); test: ASSAY (VI) binding to the rat amylin receptor; conditions: for IC50: binding to rat amylin receptor, read-out: rAmylin-R bind IC50
T1 construct: expressed in transfected cells; host or cells: BHK tk'ts 13 (transient, FuGENE 6), membranes
T1 sequence (P32214 25-479 isoform P32214-2 limits assumed): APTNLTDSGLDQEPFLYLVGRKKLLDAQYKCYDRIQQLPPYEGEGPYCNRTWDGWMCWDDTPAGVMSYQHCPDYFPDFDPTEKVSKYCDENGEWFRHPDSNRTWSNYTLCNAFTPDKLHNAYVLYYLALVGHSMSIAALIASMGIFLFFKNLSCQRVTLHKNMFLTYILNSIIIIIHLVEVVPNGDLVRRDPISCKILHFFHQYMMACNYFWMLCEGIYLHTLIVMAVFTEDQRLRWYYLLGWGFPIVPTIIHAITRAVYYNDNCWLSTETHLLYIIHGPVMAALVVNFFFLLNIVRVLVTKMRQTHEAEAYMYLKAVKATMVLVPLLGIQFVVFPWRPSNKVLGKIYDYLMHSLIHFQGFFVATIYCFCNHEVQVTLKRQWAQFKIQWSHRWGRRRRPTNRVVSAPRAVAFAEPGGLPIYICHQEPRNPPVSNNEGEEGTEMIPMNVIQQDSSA
T1 sequence (Q9JJ73 23-147 partner): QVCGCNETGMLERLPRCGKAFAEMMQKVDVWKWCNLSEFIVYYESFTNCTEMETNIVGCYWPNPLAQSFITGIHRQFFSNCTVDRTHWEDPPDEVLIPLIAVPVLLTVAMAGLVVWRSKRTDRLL
How it was run: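 This assay measured binding to the rat amylin receptor. BHK tk′ts 13 cells were transiently transfected with the rat calcitonin receptor using FuGENE® 6 (Roche), following the manufacturer's recommendations. About 48 hours after transfection, the cells were harvested and membranes were prepared from them for the binding determination.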

rat calcitonin receptor = biological target: T2, rat calcitonin receptor (Rattus norvegicus, UniProt P32214); test: ASSAY (VIII) binding to the rat calcitonin receptor; conditions: Table 7, read-out: rCTR bind IC50
T2 construct: expressed in transfected cells; host or cells: BHK tk'ts 13 (transient, FuGENE 6), membranes
T2 sequence (P32214 25-479 isoform P32214-2 limits assumed): T1 sequence (P32214 25-479 isoform P32214-2 limits assumed)
How it was run: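 Transfect BHK tk′ts 13 cells transiently with rat calcitonin receptor, culture in DMEM containing 10% FBS, collect cells about 48 hours later, then prepare membranes.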

[2] = Table 7, rat binding selectivity, rCTR IC50 / rAmylin-R IC50
[3] = Table 7a (preferred compounds), rat binding selectivity, rCTR IC50 / rAmylin-R IC50
[4] = ratio of rCTR bind IC50 to rAmylin-R bind IC50

| IC50 ([1]; Table 7) [nM] | Ratio rCT/rAmylin binding [1, 2] | Ratio rCT/rAmylin binding [1, 3] | Ratio rCT/rAmylin binding [1, 4] | IC50 (rat calcitonin receptor) [nM] | SMILES | Food intake reduction 0-24 h 3 nmol/kg (%) (Sprague Dawley (SD) rats; 3 nmol/kg, 0-24 h) | Food intake reduction 24-48 h 3 nmol/kg (%) (Sprague Dawley (SD) rats; 3 nmol/kg, 24-48 h) | Food intake reduction 0-24 h 30 nmol/kg (%) (Sprague Dawley (SD) rats; 0-24 h) | Food intake reduction 24-48 h 30 nmol/kg (%) (Sprague Dawley (SD) rats; 24-48 h) |
| --- | --- | --- | --- | --- | --- | --- | --- | --- | --- |
| 0.335 | 476.7 | 476.7 | 476.7 | 159 | CC[C@H](C)[C@H](NC(=O)[C@H](C)NC(=O)CNC(=O)[C@H](Cc1ccccc1)NC(=O)[C@H](CC(N)=O)NC(=O)[C@@H]1CCCN1C(=O)[C@H](CO)NC(=O)[C@H](CO)NC(=O)[C@H](Cc1c[nH]cn1)NC(=O)[C@H](CCCNC(=N)N)NC(=O)[C@H](CC(C)C)NC(=O)[C@H](Cc1ccccc1)NC(=O)[C@H](CC(=O)O)NC(=O)[C@H](C)NC(=O)[C@H](CC(C)C)NC(=O)[C@H](CCCNC(=N)N)NC(=O)[C@H](CCC(N)=O)NC(=O)[C@@H](NC(=O)[C@H](C)NC(=O)[C@@H]1CSSC[C@H](NC(=O)[C@@H](N)CCCCNC(=O)CC[C@H](NC(=O)CC[C@H](NC(=O)CCCCCCCCCCCCCCCCCCC(=O)O)C(=O)O)C(=O)O)C(=O)N[C@@H](CC(N)=O)C(=O)N[C@@H]([C@@H](C)O)C(=O)N[C@@H](C)C(=O)N[C@@H]([C@@H](C)O)C(=O)N1)[C@@H](C)O)C(=O)N1CCC[C@H]1C(=O)N[C@@H](CO)C(=O)N[C@@H](CO)C(=O)N[C@H](C(=O)N[C@@H](CC(N)=O)C(=O)N[C@H](C(=O)NCC(=O)N[C@@H](CO)C(=O)N[C@@H](CCCNC(=N)N)C(=O)N[C@H](C(=O)N[C@@H](Cc1ccc(O)cc1)C(N)=O)[C@@H](C)O)C(C)C)[C@@H](C)O [Example 52, N-ε-1-{(S)-4-carboxy-4-[(S)-4-carboxy-4-(19-carboxynonadecanoylamino)butyrylamino]butyryl}-[Asp14,Arg17,Pro21,Pro27,Arg35]-human amylin] | 25 | 15 | 63 | 50 |
| 0.181 | 134.8 | 134.8 | 134.8 | 24.4 | CC[C@H](C)[C@H](NC(=O)[C@H](C)NC(=O)CNC(=O)[C@H](Cc1ccccc1)NC(=O)[C@H](CC(N)=O)NC(=O)[C@@H]1CCCN1C(=O)[C@H](CO)NC(=O)[C@H](CO)NC(=O)[C@H](Cc1c[nH]cn1)NC(=O)[C@H](CCCNC(=N)N)NC(=O)[C@H](CC(C)C)NC(=O)[C@H](Cc1ccccc1)NC(=O)[C@H](CC(N)=O)NC(=O)[C@H](C)NC(=O)[C@H](CC(C)C)NC(=O)[C@H](CCCNC(=N)N)NC(=O)[C@H](CCC(N)=O)NC(=O)[C@@H](NC(=O)[C@H](C)NC(=O)[C@@H]1CSSC[C@H](NC(=O)[C@@H](N)CCCCNC(=O)COCCOCCNC(=O)CC[C@H](NC(=O)CCCCCCCCCCCCCCCCCCC(=O)O)C(=O)O)C(=O)N[C@@H](CC(N)=O)C(=O)N[C@@H]([C@@H](C)O)C(=O)N[C@@H](C)C(=O)N[C@@H]([C@@H](C)O)C(=O)N1)[C@@H](C)O)C(=O)N1CCC[C@H]1C(=O)N[C@@H](CO)C(=O)N[C@@H](CO)C(=O)N[C@H](C(=O)N1CCC[C@H]1C(=O)N[C@H](C(=O)NCC(=O)N[C@@H](CO)C(=O)N[C@@H](Cc1c[nH]cn1)C(=O)N[C@H](C(=O)N[C@@H](Cc1ccc(O)cc1)C(N)=O)[C@@H](C)O)C(C)C)[C@@H](C)O [Example 57] (H-K([AEEA-γGlu-C20 diacid])CNTATCATQRLANFLRHSSPNFGAIPSSTPVGSHTY-NH2; disulfide 2-7; N-terminus assumed) | – | – | 62 | 16 |
| 0.215 | 122.4 | 122.4 | 122.4 | 26.3 | CC[C@H](C)[C@H](NC(=O)[C@H](C)NC(=O)CNC(=O)[C@H](Cc1ccccc1)NC(=O)[C@H](CC(N)=O)NC(=O)[C@@H]1CCCN1C(=O)[C@H](CO)NC(=O)[C@H](CO)NC(=O)[C@H](Cc1c[nH]cn1)NC(=O)[C@H](CCCNC(=N)N)NC(=O)[C@H](CC(C)C)NC(=O)[C@H](Cc1ccccc1)NC(=O)[C@H](CC(N)=O)NC(=O)[C@H](C)NC(=O)[C@H](CC(C)C)NC(=O)[C@H](CCCNC(=N)N)NC(=O)[C@H](CCC(N)=O)NC(=O)[C@@H](NC(=O)[C@H](C)NC(=O)[C@@H]1CSSC[C@H](NC(=O)[C@@H](N)CCCCNC(=O)CC[C@H](NC(=O)CCCCCCCCCCCCCCCCCCC(=O)O)C(=O)O)C(=O)N[C@@H](CC(N)=O)C(=O)N[C@@H]([C@@H](C)O)C(=O)N[C@@H](C)C(=O)N[C@@H]([C@@H](C)O)C(=O)N1)[C@@H](C)O)C(=O)N1CCC[C@H]1C(=O)N[C@@H](CO)C(=O)N[C@@H](CO)C(=O)N[C@H](C(=O)N[C@@H](CC(N)=O)C(=O)N[C@H](C(=O)NCC(=O)N[C@@H](CO)C(=O)N[C@@H](Cc1c[nH]cn1)C(=O)N[C@H](C(=O)N[C@@H](Cc1ccc(O)cc1)C(N)=O)[C@@H](C)O)C(C)C)[C@@H](C)O [Example 60] | – | – | 69 | 21 |
| 0.842 | 39.7 | 39.7 | 39.7 | 33.4 | CC[C@H](C)[C@H](NC(=O)[C@H](C)NC(=O)CNC(=O)[C@H](Cc1ccccc1)NC(=O)[C@H](CC(N)=O)NC(=O)[C@@H]1CCCN1C(=O)[C@H](CO)NC(=O)[C@H](CO)NC(=O)[C@H](Cc1c[nH]cn1)NC(=O)[C@H](CCCNC(=N)N)NC(=O)[C@H](CC(C)C)NC(=O)[C@H](Cc1ccccc1)NC(=O)[C@H](Cc1c[nH]cn1)NC(=O)[C@H](C)NC(=O)[C@H](CC(C)C)NC(=O)[C@H](CCCNC(=N)N)NC(=O)[C@H](CCC(N)=O)NC(=O)[C@@H](NC(=O)[C@H](C)NC(=O)[C@@H]1CSSC[C@H](NC(=O)[C@@H](N)CCCCNC(=O)COCCOCCNC(=O)CC[C@H](NC(=O)CCCCCCCCCCCCCCCCCCC(=O)O)C(=O)O)C(=O)N[C@@H](CC(N)=O)C(=O)N[C@@H]([C@@H](C)O)C(=O)N[C@@H](C)C(=O)N[C@@H]([C@@H](C)O)C(=O)N1)[C@@H](C)O)C(=O)N1CCC[C@H]1C(=O)N[C@@H](CO)C(=O)N[C@@H](CO)C(=O)N[C@H](C(=O)N1CCC[C@H]1C(=O)N[C@H](C(=O)NCC(=O)N[C@@H](CO)C(=O)N[C@@H](CC(N)=O)C(=O)N[C@H](C(=O)N[C@@H](Cc1ccc(O)cc1)C(N)=O)[C@@H](C)O)C(C)C)[C@@H](C)O [Example 61] (H-K([AEEA-γGlu-C20 diacid])CNTATCATQRLAHFLRHSSPNFGAIPSSTPVGSNTY-NH2; disulfide 2-7 (inferred)) | – | – | 53 | 18 |
| 0.42 | 42.8 | 42.8 | 42.8 | 18 | CC[C@H](C)[C@H](NC(=O)[C@H](C)NC(=O)CNC(=O)[C@H](Cc1ccccc1)NC(=O)[C@H](CC(N)=O)NC(=O)[C@@H]1CCCN1C(=O)[C@H](CO)NC(=O)[C@H](CO)NC(=O)[C@H](Cc1c[nH]cn1)NC(=O)[C@H](CCCNC(=N)N)NC(=O)[C@H](CC(C)C)NC(=O)[C@H](Cc1ccccc1)NC(=O)[C@H](Cc1c[nH]cn1)NC(=O)[C@H](C)NC(=O)[C@H](CC(C)C)NC(=O)[C@H](CCCNC(=N)N)NC(=O)[C@H](CCC(N)=O)NC(=O)[C@@H](NC(=O)[C@H](C)NC(=O)[C@@H]1CSSC[C@H](NC(=O)[C@@H](N)CCCCNC(=O)CC[C@H](NC(=O)CCCCCCCCCCCCCCCCCCC(=O)O)C(=O)O)C(=O)N[C@@H](CC(N)=O)C(=O)N[C@@H]([C@@H](C)O)C(=O)N[C@@H](C)C(=O)N[C@@H]([C@@H](C)O)C(=O)N1)[C@@H](C)O)C(=O)N1CCC[C@H]1C(=O)N[C@@H](CO)C(=O)N[C@@H](CO)C(=O)N[C@H](C(=O)N1CCC[C@H]1C(=O)N[C@H](C(=O)NCC(=O)N[C@@H](CO)C(=O)N[C@@H](CC(N)=O)C(=O)N[C@H](C(=O)N[C@@H](Cc1ccc(O)cc1)C(N)=O)[C@@H](C)O)C(C)C)[C@@H](C)O [Example 62] (H-K([γGlu-C20 diacid])CNTATCATQRLAHFLRHSSPNFGAIPSSTPVGSNTY-NH2; disulfide 2-7; N-terminus assumed) | – | – | 62 | 18 |
